Measured values from US4957902A, “Peptide inhibitors of wound contraction” (Board of Regents, the University of Texas System, priority 1988, dated 1990).

System: Human skin fibroblasts on collagen-coated surfaces
Assay type: cell-based
Conditions: 0.5 mg/ml peptide; serum-free DMEM; 60 minutes
Method: The incubations contained peptides at the concentrations indicated and cell spreading was measured after 60 minute Method: Falcon 35 mm tissue culture dishes were coated with collagen (Vitrogen 100; 50 ug/ml in DMEM) for 15 minutes at 37° C. and counter-coated for 15 minutes with 1 mg/ml heat denatured bovine serum albumin. Human skin fibroblasts in DMEM with peptides added at the concentrations indicated were incubated on the substrata for 60 minutes at 37°. The end of the incubations, the cells were fixed and projected cell surface areas were measured by superimposing the microscopic field on the digitizing tablet of a Zidas image analyzer. Data presented are averages±95% confidence limits based on measurement of 50-100 cells. See reference 21 for complete details.

## N=C(N)NCCC[C@H](NC(=O)CN)C(=O)NCC(=O)N[C@@H](CC(=O)O)C(=O)N[C@@H](CO)C(=O)N1CCC[C@H]1C(=O)O [GRGDSP, Gly--Arg--Gly--Asp--Ser--Pro]
  inhibition of cell spreading on collagen-coated surfaces: about 50%
